Results taken from PubChem BioAssay AID330 (DTP/NCI, 2004).
Where “and” joins values, the source holds several entries; their conditions need not be identical. Equal entries are not always repeated. Toxic doses and inconclusive results are not listed. How the source made its calls: active means survival T/C of 150% or more; inactive means T/C below 125% in these data.

System: P388 leukemia ip, CD2F1 mice, survival T/C
Experiment: NCI In Vivo Anticancer Drug Screen. Data for tumor model P388 Leukemia (intraperitoneal) in CD2F1 (CDF1) mice
Conditions: endpoint: median survival time, higher = longer survival
Procedure, shortened: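 Mice carrying the transplanted tumor received test compound or vehicle. Survival was recorded in each group, and the value is the treated-group measurement divided by that of the vehicle-treated control group.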

[1] = dose: 50.0 mg/kg/injection, schedule: Q01DX005 (ip), vehicle: Klucel (hydroxypropylcellulose) (HPC)
[2] = dose: 100.0 mg/kg/injection, schedule: Q01DX005 (ip), vehicle: Klucel (hydroxypropylcellulose) (HPC)
[3] = dose: 200.0 mg/kg/injection, schedule: Q01DX005 (ip), vehicle: Klucel (hydroxypropylcellulose) (HPC)
[4] = dose: 50.0 mg/kg/injection, schedule: Q01DX005 (ip), vehicle: saline with Tween-80
[5] = dose: 100.0 mg/kg/injection, schedule: Q01DX005 (ip), vehicle: saline with Tween-80
[6] = dose: 200.0 mg/kg/injection, schedule: Q01DX005 (ip), vehicle: saline with Tween-80
[7] = dose: 50.0 mg/kg/injection, schedule: Q01DX009 (ip), vehicle: saline with Tween-80
[8] = dose: 60.0 mg/kg/injection, schedule: Q01DX005 (ip), vehicle: Klucel (hydroxypropylcellulose) (HPC)
[9] = dose: 120.0 mg/kg/injection, schedule: Q01DX005 (ip), vehicle: Klucel (hydroxypropylcellulose) (HPC)
[10] = dose: 240.0 mg/kg/injection, schedule: Q01DX005 (ip), vehicle: Klucel (hydroxypropylcellulose) (HPC)
[11] = dose: 50.0 mg/kg/injection, schedule: Q01DX009 (ip), vehicle: saline
[12] = dose: 100.0 mg/kg/injection, schedule: Q01DX009 (ip), vehicle: saline
[13] = dose: 200.0 mg/kg/injection, schedule: Q01DX009 (ip), vehicle: saline
[14] = dose: 50.0 mg/kg/injection, schedule: Q01DX009 (ip), vehicle: Klucel (hydroxypropylcellulose) (HPC)
[15] = dose: 100.0 mg/kg/injection, schedule: Q01DX009 (ip), vehicle: Klucel (hydroxypropylcellulose) (HPC)

Measured: T/C

CC1=C(C)C(=O)OC(C(C)(O)C2(O)CCC3(O)C4CC(Cl)C5(O)C(O)C=CC(=O)C5(C)C4CCC32C)C1 (centres undefined)
inactive: dose: 10.0 mg/kg/injection, schedule: Q01DX005 (ip), vehicle: saline + alcohol 106 % of control | dose: 20.0 mg/kg/injection, schedule: Q01DX005 (ip), vehicle: saline + alcohol 108 % of control | dose: 25.0 mg/kg/injection, schedule: Q01DX005 (ip), vehicle: saline + alcohol 104 % of control | dose: 40.0 mg/kg/injection, schedule: Q01DX005 (ip), vehicle: saline + alcohol 112 % of control | dose: 50.0 mg/kg/injection, schedule: Q01DX005 (ip), vehicle: saline + alcohol 100 % of control and 104 % of control | dose: 80.0 mg/kg/injection, schedule: Q01DX005 (ip), vehicle: saline + alcohol 117 % of control | dose: 100.0 mg/kg/injection, schedule: Q01DX005 (ip), vehicle: saline + alcohol 104 % of control (2×) and 120 % of control | dose: 200.0 mg/kg/injection, schedule: Q01DX005 (ip), vehicle: saline + alcohol 99 % of control and 109 % of control and 111 % of control

COC(=O)C1C(NCc2ccccc2)=CC(C)(C)C(C(=O)OC)C1c1ccccc1 (centres undefined)
inactive: [1] 103 % of control | [2] 100 % of control | [3] 97 % of control

O=C(N=Nc1ccccc1)Nc1ccc(Cl)cc1
inactive: [4] 100 % of control | [5] 100 % of control | [6] 90 % of control

CCCCCCC(=O)/C=C/c1ccc(O)cc1
inactive: [7] 105 % of control | dose: 100.0 mg/kg/injection, schedule: Q01DX009 (ip), vehicle: saline with Tween-80 105 % of control | dose: 200.0 mg/kg/injection, schedule: Q01DX009 (ip), vehicle: saline with Tween-80 105 % of control

CC1=C(C)C(C)(C)OC1=O
inactive: dose: 100.0 mg/kg/injection, schedule: Q01DX001 (ip), vehicle: saline with Tween-80 100 % of control | dose: 200.0 mg/kg/injection, schedule: Q01DX001 (ip), vehicle: saline with Tween-80 100 % of control | dose: 400.0 mg/kg/injection, schedule: Q01DX001 (ip), vehicle: saline with Tween-80 104 % of control

C=C(CC(=O)O)C(N)C(=O)O (centres undefined)
inactive: [8] 104 % of control | [9] 100 % of control | [10] 106 % of control

CN=C1N=C(c2ccc(C(C)(C)C)cc2)C(O)(c2ccc(C(C)(C)C)cc2)N1 (centres undefined)
inactive: dose: 25.0 mg/kg/injection, schedule: Q04DX002 (ip), vehicle: saline with Tween-80 104 % of control | dose: 50.0 mg/kg/injection, schedule: Q04DX002 (ip), vehicle: saline with Tween-80 117 % of control

CCOC1CC(=O)C2(C)C3CCC4(C)C(C(C)C5CC(C)=C(CO)C(=O)O5)CCC4C3CC3OC32C1O (centres undefined)
inactive: dose: 12.67 mg/kg/injection, schedule: Q01DX009 (ip), vehicle: saline + alcohol 101 % of control | dose: 25.35 mg/kg/injection, schedule: Q01DX009 (ip), vehicle: saline + alcohol 104 % of control | dose: 50.7 mg/kg/injection, schedule: Q01DX009 (ip), vehicle: saline + alcohol 92 % of control

CC(=O)Nc1nncs1
inactive: dose: 100.0 mg/kg/injection, schedule: Q04DX003 (ip), vehicle: saline sonified 109 % of control | dose: 200.0 mg/kg/injection, schedule: Q04DX003 (ip), vehicle: saline sonified 90 % of control | dose: 400.0 mg/kg/injection, schedule: Q04DX003 (ip), vehicle: saline sonified 118 % of control

COc1ccc(CSCC(NC(=O)OC(C)(C)C)C(=O)O)cc1 (centres undefined)
inactive: [1] 105 % of control | [2] 97 % of control | [3] 100 % of control

CC1(C)N=C(N)N=C(N)N1CCCCc1ccccc1
inactive: dose: 6.25 mg/kg/injection, schedule: Q01DX005 (ip), vehicle: Klucel (hydroxypropylcellulose) (HPC) 110 % of control | dose: 12.5 mg/kg/injection, schedule: Q01DX005 (ip), vehicle: Klucel (hydroxypropylcellulose) (HPC) 114 % of control | dose: 25.0 mg/kg/injection, schedule: Q01DX005 (ip), vehicle: Klucel (hydroxypropylcellulose) (HPC) 118 % of control

O=C(NCCCCCCCCCNC(=O)C12CC3CC(CC(C3)C1)C2)C12CC3CC(CC(C3)C1)C2
inactive: dose: 12.5 mg/kg/injection, schedule: Q01DX005 (ip), vehicle: saline with Tween-80 93 % of control | dose: 25.0 mg/kg/injection, schedule: Q01DX005 (ip), vehicle: saline with Tween-80 93 % of control | [4] 88 % of control | [6] 90 % of control

Cc1ccc(C2NC(c3ccc(C)cc3)C3CCCC2C3O)cc1 (centres undefined)
inactive: dose: 100.0 mg/kg/injection, schedule: Q04DX003 (ip), vehicle: saline 100 % of control | dose: 200.0 mg/kg/injection, schedule: Q04DX003 (ip), vehicle: saline 97 % of control | dose: 400.0 mg/kg/injection, schedule: Q04DX003 (ip), vehicle: saline 95 % of control

CC(C)(C)N1C(=O)C(Cl)(C#N)C1c1ccccc1 (centres undefined)
inactive: [8] 95 % of control | [9] 92 % of control | [10] 92 % of control

Cc1cc(C)n(-c2ccncc2[N+](=O)[O-])n1
inactive: [11] 101 % of control | [12] 97 % of control | [13] 105 % of control

CNC1C(OC2C(OC3C(O)C(O)C(N=C(N)N)C(O)C3N=C(N)N)OC(C)C2(O)/C=N/NC(N)=S)OC(CO)C(O)C1O (centres undefined)
inactive: [4] 101 % of control | [5] 100 % of control | [6] 103 % of control

O=c1oc2ccccc2n1P(=O)(N1CCOCC1)N1CCOCC1
inactive: [11] 100 % of control | [12] 98 % of control | [13] 95 % of control

C=C1[C@@H]2CC[C@@]3([C@@H](C2)[C@@]24CCC[C@@]5(C)CN(CCO)[C@@H]2O[C@@H]3C[C@H]54)[C@@H]1O
inactive: dose: 2.0 mg/kg/injection, schedule: Q01DX009 (ip), vehicle: Klucel (hydroxypropylcellulose) (HPC) 97 % of control | dose: 4.0 mg/kg/injection, schedule: Q01DX009 (ip), vehicle: Klucel (hydroxypropylcellulose) (HPC) 97 % of control | dose: 8.0 mg/kg/injection, schedule: Q01DX009 (ip), vehicle: Klucel (hydroxypropylcellulose) (HPC) 98 % of control | dose: 16.0 mg/kg/injection, schedule: Q01DX009 (ip), vehicle: Klucel (hydroxypropylcellulose) (HPC) 94 % of control

CCCCCCCCCCCCCCCCCC[N+]1(CCCC)CCOCC1
inactive: dose: 12.5 mg/kg/injection, schedule: Q01DX009 (ip), vehicle: saline with Tween-80 102 % of control | dose: 25.0 mg/kg/injection, schedule: Q01DX009 (ip), vehicle: saline with Tween-80 108 % of control | [7] 101 % of control and 114 % of control

O=C(NCCN1CCCCC1)c1ccc(Cl)cc1Cl
inactive: [14] 101 % of control | [15] 98 % of control

CCN(CC)C(CC(=O)C(C)(C)C)=NCCCN1CCN(C)CC1
inactive: [11] 98 % of control | [12] 100 % of control

S=P([S][Sn]([S]P(=S)(c1ccccc1)c1ccccc1)([c]1ccccc1)[c]1ccccc1)(c1ccccc1)c1ccccc1
inactive: dose: 1.56 mg/kg/injection, schedule: Q01DX005 (ip), vehicle: Klucel (hydroxypropylcellulose) (HPC) 108 % of control | dose: 3.12 mg/kg/injection, schedule: Q01DX005 (ip), vehicle: Klucel (hydroxypropylcellulose) (HPC) 117 % of control

CC1C2c3ccccc3C(c3ccccc32)C1CO (centres undefined)
inactive: [4] 92 % of control | [5] 91 % of control | [6] 90 % of control

CC1=NNC(=O)C1
inactive: [14] 86 % of control | [15] 102 % of control | dose: 200.0 mg/kg/injection, schedule: Q01DX009 (ip), vehicle: Klucel (hydroxypropylcellulose) (HPC) 94 % of control | dose: 400.0 mg/kg/injection, schedule: Q01DX009 (ip), vehicle: Klucel (hydroxypropylcellulose) (HPC) 106 % of control

COc1cccc(C(O)c2ccncc2C)c1OC (centres undefined)
inactive: dose: 12.5 mg/kg/injection, schedule: Q01DX009 (ip), vehicle: water 100 % of control | dose: 25.0 mg/kg/injection, schedule: Q01DX009 (ip), vehicle: water 99 % of control | dose: 50.0 mg/kg/injection, schedule: Q01DX009 (ip), vehicle: water 100 % of control | dose: 100.0 mg/kg/injection, schedule: Q01DX009 (ip), vehicle: water 99 % of control | dose: 200.0 mg/kg/injection, schedule: Q01DX009 (ip), vehicle: water 99 % of control

COc1ccc(C2CC(C)(N3CCCC3)Oc3cc4c(cc32)OCO4)cc1 (centres undefined)
inactive: dose: 60.0 mg/kg/injection, schedule: Q01DX005 (ip), vehicle: saline with Tween-80 101 % of control | dose: 120.0 mg/kg/injection, schedule: Q01DX005 (ip), vehicle: saline with Tween-80 92 % of control | dose: 240.0 mg/kg/injection, schedule: Q01DX005 (ip), vehicle: saline with Tween-80 98 % of control
